System: AMPK
Assay: AMPK activation assay (enzyme-linked immunosorbent assay)
Type: cell-based
In short: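 Compounds were tested for their capacity to activate the kinase using standard, commercially available kit reagents and procedures.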

Structure (SMILES) | EC50 [nM]
C[S+]([O-])c1ccc(C(=O)C2CCN(C(=O)c3ccc(C(=O)NC4CC[N+]([O-])(Cc5ccc(C#N)cc5)CC4)nc3)CC2)cc1 (stereo not shown) [Compound 374, 1-(4-cyanobenzyl)-4-(5-(4-(4-(methylsulfinyl)benzoyl)piperidine-1-carbonyl)picolinamido)piperidine 1-oxide] | > 10000
N#Cc1ccc(CN2CCC(NC(=O)c3ccc(C(=O)N4CCC(C(=O)c5ccc(-n6cccn6)cc5)CC4)cn3)CC2)cc1 [Compound 375, 5-(4-(4-(1H-pyrazol-1-yl)benzoyl)piperidine-1-carbonyl)-N-(1-(4-cyanobenzyl)piperidin-4-yl)picolinamide] | < 500
N#Cc1ccc(CN2CCC(NC(=O)c3ccc(C(=O)N4CCC(C(=O)c5ccc(N6CCOCC6)cc5)CC4)cn3)CC2)cc1 [Compound 376, N-(1-(4-cyanobenzyl)piperidin-4-yl)-5-(4-(4-morpholinobenzoyl)piperidine-1-carbonyl)picolinamide] | < 500
N#Cc1ccc(CN2CCC(NC(=O)c3ccc(C(=O)N4CCC(C(=O)c5ccc(N6CCCC6)cc5)CC4)nc3)CC2)cc1 [Compound 377, N-(1-(4-cyanobenzyl)piperidin-4-yl)-6-(4-(4-(pyrrolidin-1-yl)benzoyl)piperidine-1-carbonyl)nicotinamide] | < 500
COc1ccc(OC2CCN(C(=O)c3ccc(C(=O)NC4CCN(Cc5ccc(C#N)cc5)CC4)cn3)CC2)c([N+](=O)[O-])c1 [Compound 378, N-(1-(4-cyanobenzyl)piperidin-4-yl)-6-(4-(4-methoxy-2-nitrophenoxy)piperidine-1-carbonyl)nicotinamide] | < 500
O=C(Nc1ccc(Oc2ccc(F)cc2)nc1)c1ccc(C(=O)N2CCC(C(=O)c3ccc(N4CCOCC4)cc3)CC2)cn1 [Compound 379, N-(6-(4-fluorophenoxy)pyridin-3-yl)-5-(4-(4-morpholinobenzoyl)piperidine-1-carbonyl)picolinamide] | < 500
CN1CCN(c2ccc(C(=O)C3CCN(C(=O)c4ccc(C(=O)NC5CCN(Cc6ccc(C#N)cc6)CC5)nc4)CC3)cc2)CC1 [Compound 380, N-(1-(4-cyanobenzyl)piperidin-4-yl)-5-(4-(4-(4-methylpiperazin-1-yl)benzoyl)piperidine-1-carbonyl)picolinamide] | < 500
O=C(NC1CCN(Cc2ccc(F)cc2)CC1)c1ccc(C(=O)N2CCC(C(=O)c3ccc(N4CCCC4)cc3)CC2)nc1 [Compound 381, N-(1-(4-fluorobenzyl)piperidin-4-yl)-6-(4-(4-(pyrrolidin-1-yl)benzoyl)piperidine-1-carbonyl)nicotinamide] | < 500
O=C(Nc1ccc(Oc2ccc(F)cc2)nc1)c1ccc(C(=O)N2CCC(C(=O)c3ccc(N4CCCC4)cc3)CC2)nc1 [Compound 382, N-(6-(4-fluorophenoxy)pyridin-3-yl)-6-(4-(4-(pyrrolidin-1-yl)benzoyl)piperidine-1-carbonyl)nicotinamide] | < 500
COc1ccc(OC2CCN(C(=O)c3ccc(C(=O)NC4CCN(Cc5ccc(C#N)cc5)CC4)cn3)CC2)c(NC(C)=O)c1 [Compound 383, 6-(4-(2-acetamido-4-methoxyphenoxy)piperidine-1-carbonyl)-N-(1-(4-cyanobenzyl)piperidin-4-yl)nicotinamide] | > 10000
COc1ccc(OC2CCN(C(=O)c3ccc(C(=O)NC4CCN(Cc5ccc(C#N)cc5)CC4)cn3)CC2)c(N)c1 [Compound 384, 6-(4-(2-amino-4-methoxyphenoxy)piperidine-1-carbonyl)-N-(1-(4-cyanobenzyl)piperidin-4-yl)nicotinamide] | 500 to 1000
COc1ccc(OC2CCN(C(=O)c3ccc(C(=O)NC4CCN(Cc5ccc(C#N)cc5)CC4)cn3)CC2)c(N(C)C)c1 [Compound 385, N-(1-(4-cyanobenzyl)piperidin-4-yl)-6-(4-(2-(dimethylamino)-4-methoxyphenoxy)piperidine-1-carbonyl)nicotinamide] | > 10000
N#Cc1ccc(CN2CCC(NC(=O)c3ccc(C(=O)NC4CCN(Cc5ccc(C#N)cc5)CC4)nn3)CC2)cc1 [Compound 386, N3,N6-bis(1-(4-cyanobenzyl)piperidin-4-yl)pyridazine-3,6-dicarboxamide] | > 10000
COc1ccc(C(=O)C2CCN(C(=O)c3ccc(C(=O)NC4CCN(Cc5ccc(C#N)cc5)CC4)nn3)CC2)cc1 [Compound 387, N-(1-(4-cyanobenzyl)piperidin-4-yl)-6-(4-(4-methoxybenzoyl)piperidine-1-carbonyl)pyridazine-3-carboxamide] | < 500
N#Cc1ccc(CN2CCC(NC(=O)c3ccc(C(=O)N4CCC(Oc5ccc(C#N)cc5)CC4)nn3)CC2)cc1 [Compound 388, N-(1-(4-cyanobenzyl)piperidin-4-yl)-6-(4-(4-cyanophenoxy)piperidine-1-carbonyl)pyridazine-3-carboxamide] | < 500
COc1ccc(OC2CCN(C(=O)c3ccc(C(=O)NC4CCN(Cc5ccc(C#N)cc5)CC4)cn3)CC2)c(NS(C)(=O)=O)c1 [Compound 389, N-(1-(4-cyanobenzyl)piperidin-4-yl)-6-(4-(4-methoxy-2-(methylsulfonamido)phenoxy)piperidine-1-carbonyl)nicotinamide] | 1000 to 5000
CC(=O)c1ccc(OC2CCN(C(=O)c3ccc(C(=O)NC4CCN(Cc5ccc(C#N)cc5)CC4)cn3)CC2)cc1 [Compound 390, 6-(4-(4-acetylphenoxy)piperidine-1-carbonyl)-N-(1-(4-cyanobenzyl)piperidin-4-yl)nicotinamide] | < 500
CC(=O)c1ccc(OC2CCN(C(=O)c3ccc(C(=O)NC4CCN(Cc5ccc(F)cc5)CC4)cn3)CC2)cc1 [Compound 391, 6-(4-(4-acetylphenoxy)piperidine-1-carbonyl)-N-(1-(4-fluorobenzyl)piperidin-4-yl)nicotinamide] | < 500
O=C(NC1CCN(Cc2ccc(F)cc2)CC1)c1ccc(C(=O)N2CCC(C(=O)c3ccc(-n4cccn4)cc3)CC2)nc1 [Compound 392, 6-(4-(4-(1H-pyrazol-1-yl)benzoyl)piperidine-1-carbonyl)-N-(1-(4-fluorobenzyl)piperidin-4-yl)nicotinamide] | < 500
N#Cc1ccc(CN2CCC(NC(=O)c3ccc(C(=O)N4CCC(C(=O)c5ccc(-n6cccn6)cc5)CC4)nc3)CC2)cc1 [Compound 393, 6-(4-(4-(1H-pyrazol-1-yl)benzoyl)piperidine-1-carbonyl)-N-(1-(4-cyanobenzyl)piperidin-4-yl)nicotinamide] | < 500
COc1ccc(OC2CCN(C(=O)c3ccc(C(=O)NC4CCN(Cc5ccc(C#N)cc5)CC4)cn3)CC2)c(NC(=O)CCOCCOCCOCCOCCNC(=O)CCCC[C@@H]2SC[C@@H]3NC(=O)N[C@@H]32)c1 [Compound 394, N-(1-(4-cyanobenzyl)piperidin-4-yl)-6-(4-(4-methoxy-2-(17-oxo-21-((3aS,4S,6aR)-2-oxohexahydro-1H-thieno[3,4-d]imidazol-4-yl)-4,7,10,13-tetraoxa-16-azahenicosanamido)phenoxy)piperidine-1-carbonyl)nicotinamide] | > 10000

Other lines, results leading:

EC50 [nM] | Structure (SMILES)
< 500 | CC(=O)c1ccc(OC2CCN(C(=O)c3ccc(C(=O)Nc4ccc(Oc5ccc(F)cc5)nc4)cn3)CC2)cc1 [Compound 395, 6-(4-(4-acetylphenoxy)piperidine-1-carbonyl)-N-(6-(4-fluorophenoxy)pyridin-3-yl)nicotinamide]
1000 to 5000 | CS(=O)(=O)c1ccc(OC2CCN(C(=O)c3ccc(C(=O)NC4CCN(Cc5ccc(F)cc5)CC4)cn3)CC2)cc1 [Compound 396, N-(1-(4-fluorobenzyl)piperidin-4-yl)-6-(4-(4-(methylsulfonyl)phenoxy)piperidine-1-carbonyl)nicotinamide]
< 500 | CS(=O)(=O)c1ccc(OC2CCN(C(=O)c3ccc(C(=O)NC4CCN(Cc5ccc(C#N)cc5)CC4)cn3)CC2)cc1 [Compound 397, N-(1-(4-cyanobenzyl)piperidin-4-yl)-6-(4-(4-(methylsulfonyl)phenoxy)piperidine-1-carbonyl)nicotinamide]
< 500 | CS(=O)(=O)c1ccc(OC2CCN(C(=O)c3ccc(C(=O)NC4CCC(Oc5ccc(C#N)cc5)CC4)cn3)CC2)cc1 (stereo not shown) [Compound 398, N-(4-(4-cyanophenoxy)cyclohexyl)-6-(4-(4-(methylsulfonyl)phenoxy)piperidine-1-carbonyl)nicotinamide]
< 500 | CS(=O)(=O)c1ccc(OC2CCN(C(=O)c3ccc(C(=O)NC4CCN(Cc5ccc(C#N)cc5)CC4)nn3)CC2)cc1 [Compound 399, N-(1-(4-cyanobenzyl)piperidin-4-yl)-6-(4-(4-(methylsulfonyl)phenoxy)piperidine-1-carbonyl)pyridazine-3-carboxamide]
1000 to 5000 | COc1ccc(C(=O)C2CCN(C(=O)c3ccc(C(=O)NC4CCN(Cc5ccc(N)cc5)CC4)cn3)CC2)cc1 [Compound 400, N-(1-(4-aminobenzyl)piperidin-4-yl)-6-(4-(4-methoxybenzoyl)piperidine-1-carbonyl)nicotinamide]
1000 to 5000 | COc1ccc(C(=O)C2CCN(C(=O)c3ccc(C(=O)NC4CCN(Cc5ccc(NC(C)=O)cc5)CC4)cn3)CC2)cc1 [Compound 401, N-(1-(4-acetamidobenzyl)piperidin-4-yl)-6-(4-(4-methoxybenzoyl)piperidine-1-carbonyl)nicotinamide]
< 500 | CC(=O)c1ccc(OC2CCN(C(=O)c3ccc(C(=O)NC4CCC(Oc5ccc(C#N)cc5)CC4)cn3)CC2)cc1 (stereo not shown) [Compound 402, 6-(4-(4-acetylphenoxy)piperidine-1-carbonyl)-N-(4-(4-cyanophenoxy)cyclohexyl)nicotinamide]
> 10000 | COc1ccc(C(=O)C2CCN(C(=O)c3ccc(C(=O)NC4CCN(Cc5ccc(NC(=O)CCOCCOCCOCCNC(=O)CCCC[C@@H]6SC[C@@H]7NC(=O)N[C@@H]76)cc5)CC4)nc3)CC2)cc1 [Compound 403, 5-(4-(4-methoxybenzoyl)piperidine-1-carbonyl)-N-(1-(4-(14-oxo-18-((3aS,4S,6aR)-2-oxohexahydro-1H-thieno[3,4-d]imidazol-4-yl)-4,7,10-trioxa-13-azaoctadecanamido)benzyl)piperidin-4-yl)picolinamide]
1000 to 5000 | O=C(NC1CCN(c2ccc(F)cc2)CC1)c1ccc(C(=O)N2CCN(Cc3ccc(F)cc3)CC2)nc1 [Compound 404, 6-(4-(4-fluorobenzyl)piperazine-1-carbonyl)-N-(1-(4-fluorophenyl)piperidin-4-yl)nicotinamide]
